pIC50: −log10 of the molar value. Bounds are passed on as bounds.

Sequence of P70S6K (P23443 1-421 T412E): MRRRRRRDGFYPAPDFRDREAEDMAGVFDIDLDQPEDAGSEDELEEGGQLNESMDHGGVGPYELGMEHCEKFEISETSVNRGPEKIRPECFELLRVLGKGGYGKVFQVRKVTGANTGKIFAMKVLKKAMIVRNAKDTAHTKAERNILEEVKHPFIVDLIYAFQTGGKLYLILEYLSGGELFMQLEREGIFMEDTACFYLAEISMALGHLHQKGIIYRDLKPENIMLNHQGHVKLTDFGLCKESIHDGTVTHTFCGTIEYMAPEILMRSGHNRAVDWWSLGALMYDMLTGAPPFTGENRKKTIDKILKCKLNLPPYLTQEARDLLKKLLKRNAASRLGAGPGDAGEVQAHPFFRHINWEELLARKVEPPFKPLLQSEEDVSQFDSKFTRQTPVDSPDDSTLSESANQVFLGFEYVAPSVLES

This assay has as its target P70S6K (Homo sapiens (Human), UniProt P23443, T412E). As to the kind of experiment: P70S6K Enzyme Assay. In kind it is biochemical. As to conditions: P70S6K T412E mutant, 24 μM ATP, mobility shift (Caliper). How it is done:
P70S6K inhibitor compounds are diluted and plated in 96 well plates. […] The reaction is incubated for 90 min at 25° C., before the addition of 10 mM EDTA to stop the reaction. The proportion of substrate and product (phosphorylated) peptide is analysed on a Caliper Life Sciences Lab Chip 3000, using a pressure of −1.4 psi, and upstream and downstream voltages of −3000 and −700 respectively. Product peaks are resolved before substrate peaks on the resulting chromatograms.
On to `NC(=O)c1ccc(NC2CNC[C@@H]2c2ccc(OC(F)(F)F)cc2)c2cncnc12` (mixture of isomers) [Example 1, 5-((4-(4-(trifluoromethoxy)phenyl)pyrrolidin-3-yl)amino)quinazoline-8-carboxamide], for which the negative logarithm of the IC50 (pIC50) was 7.64.
In the case of `NC(=O)c1ccc(NC2CNC[C@@H]2c2cc(F)cc(Cl)c2)c2cncnc12` (mixture of isomers) [Example 2, 5-((4-(3-chloro-5-fluorophenyl)pyrrolidin-3-yl)amino)quinazoline-8-carboxamide], the negative logarithm of the IC50 (pIC50) was 6.80.
Turning to `NC(=O)c1ccc(NC2CNCCC2c2ccccc2)c2cncnc12` (racemic) [Example 3, 5-((4-phenylpiperidin-3-yl)amino)quinazoline-8-carboxamide], the negative logarithm of the IC50 (pIC50) was 8.39.
In the case of `NC(=O)c1ccc(NC2CNCCC2c2ccc(C(F)(F)F)c(F)c2)c2cncnc12` (racemic) [Example 4, 5-((4-(3-fluoro-4-(trifluoromethyl)phenyl)piperidin-3-yl)amino)quinazoline-8-carboxamide], the negative-log IC50 (pIC50) was 8.23.
Under `NCC(c1ccc(C(F)(F)F)cc1)N1CCN(c2ccc(C(N)=O)c3ncncc23)CC1` (racemic) [Example 8, 5-(4-(2-amino-1-(4-(trifluoromethyl)phenyl)ethyl)piperazin-1-yl)quinazoline-8-carboxamide] stands 6.68; under `NC(=O)c1ccc(N2CCC(N)(CNC(=O)c3ccc(F)cc3F)C2)c2cncnc12` (racemic) [Example 9, 5-(3-amino-3-((2,4-difluorobenzamido)methyl)pyrrolidin-1-yl)quinazoline-8-carboxamide], below 6.00.
`NC(=O)c1ccc(N2CCC(N)(CNC(=O)c3ccc(F)cc3O)C2)c2cncnc12` (racemic) [Example 10, 5-(3-amino-3-((4-fluoro-2-hydroxybenzamido)methyl)pyrrolidin-1-yl)quinazoline-8-carboxamide]: the negative logarithm of the IC50 (pIC50) is below 6.00.
Consider `NCC1(C(=O)Nc2ccccc2)CCCN(c2ccc(C(N)=O)c3ncncc23)C1` (racemic) [Example 11, 5-(3-(aminomethyl)-3-(phenylcarbamoyl)piperidin-1-yl)quinazoline-8-carboxamide], for which the pIC50 was below 6.00.
With `NC(=O)c1ccc(NCC2(C(=O)Nc3ccccc3)CCNC2)c2cncnc12` (racemic) [Example 12, 5-(((3-(phenylcarbamoyl)pyrrolidin-3-yl)methyl)amino)quinazoline-8-carboxamide], the pIC50 is 6.19.
Regarding `NC(=O)c1ccc(NC2CNC[C@@H]2C(=O)Nc2cccc(F)c2)c2cncnc12` (mixture of isomers) [Example 13, 5-((-4-((3-fluorophenyl)carbamoyl)pyrrolidin-3-yl)amino)quinazoline-8-carboxamide], the pIC50 was 6.54.
For `NC(=O)c1ccc(N2CCC(N)(C(=O)Nc3ccccc3)C2)c2cncnc12` (racemic) [Example 15, 5-(3-amino-3-(phenylcarbamoyl)pyrrolidin-1-yl)quinazoline-8-carboxamide], the negative logarithm of the IC50 (pIC50) is 5.64.
Take `NC(=O)c1ccc(NC2CNC[C@@H]2c2ccc3cccnc3c2)c2cccnc12` (mixture of isomers) [Example 17, 5-((-4-(quinolin-7-yl)pyrrolidin-3-yl)amino)quinoline-8-carboxamide]: the negative logarithm of the IC50 (pIC50) was 6.72.
As to `NC(=O)c1ccc(N2CCNC(c3ccccc3)C2)c2cccnc12` (racemic) [Example 18, 5-(3-phenylpiperazin-1-yl)quinoline-8-carboxamide], the negative logarithm of the IC50 (pIC50) is 6.17.
For `NC(=O)c1ccc(NCC2(C(=O)Nc3ccccc3)CCNC2)c2cccnc12` (racemic) [Example 20, 5-(((3-(phenylcarbamoyl)pyrrolidin-3-yl)methyl)amino)quinoline-8-carboxamide], the pIC50 was below 6.00.
As for `NC(=O)c1ccc(NC2CNC[C@@H]2c2cccc(OC(F)(F)F)c2)c2cccnc12` (mixture of isomers) [Example 21, 5-((-4-(3-(trifluoromethoxy)phenyl)pyrrolidin-3-yl)amino)quinoline-8-carboxamide], the pIC50 was 7.66.
With `NC(=O)c1ccc(N[C@@H]2CNC[C@@H]2c2cccc(OC(F)(F)F)c2)c2cccnc12` (racemic) [Example 24, 5-((-4-(3-(trifluoromethoxy)phenyl)pyrrolidin-3-yl)amino)quinoline-8-carboxamide], the pIC50 is 7.64.
Regarding `NC(=O)c1ccc(NC2CNCC[C@@H]2c2cccc(F)c2)c2cccnc12` (mixture of isomers) [Example 25, 5-((4-(3-fluorophenyl)piperidin-3-yl)amino)quinoline-8-carboxamide], the negative-log IC50 (pIC50) is 6.28.
In the case of `NC(=O)c1ccc(NC(=O)C(N)c2ccccc2)c2cccnc12` (racemic) [Example 29, 5-(2-amino-2-phenylacetamido)quinoline-8-carboxamide], the negative-log IC50 (pIC50) is below 6.00.
For the compound `NC(=O)c1ccc(N2CCC(N)(C(=O)Nc3ccc(F)cc3)C2)c2cncnc12` (racemic) [Example 43, 5-[3-amino-3-[(4-fluorophenyl)carbamoyl]pyrrolidin-1-yl]quinazoline-8-carboxamide], the negative logarithm of the IC50 (pIC50) is 5.92.
As for `NC(=O)c1ccc(N2CCC(N)(C(=O)Nc3ccc(F)c(F)c3)C2)c2cncnc12` (racemic) [Example 44, 5-(3-amino-3-((3,4-difluorophenyl)carbamoyl)pyrrolidin-1-yl)quinazoline-8-carboxamide], the negative-log IC50 (pIC50) was 5.89.
Take `NC(=O)c1ccc(N2CCC(N)(C(=O)Nc3cccc(F)c3)C2)c2cncnc12` (racemic) [Example 45, 5-(3-amino-3-((3-fluorophenyl)carbamoyl)pyrrolidin-1-yl)quinazoline-8-carboxamide]: the negative logarithm of the IC50 (pIC50) was 5.70.
As to `NC(=O)c1ccc(N2CCC(NC(=O)Cc3ccccc3)C2)c2cncnc12` (racemic) [Example 47, 5-(3-(2-phenylacetamido)pyrrolidin-1-yl)quinazoline-8-carboxamide], the pIC50 is 5.10.
Under `NC(=O)c1ccc(N2CCC(NC(=O)c3cccc(C(F)(F)F)c3)C2)c2cncnc12` (racemic) [Example 48, 5-(3-(3-(trifluoromethyl)benzamido)pyrrolidin-1-yl)quinazoline-8-carboxamide] stands 5.66.
With `CN(C)CCN(Cc1ccccc1)C(=O)C1CCN(c2ccc(C(N)=O)c3ncncc23)C1` (racemic) [Example 49, 5-(3-(benzyl(2-(dimethylamino)ethyl)carbamoyl)pyrrolidin-1-yl)quinazoline-8-carboxamide], the pIC50 was 5.80.
Regarding `NC(=O)c1ccc(N2CCC(NC(=O)c3ccc(F)c(F)c3)C2)c2cncnc12` (racemic) [Example 50, 5-(3-(3,4-difluorobenzamido)pyrrolidin-1-yl)quinazoline-8-carboxamide], the pIC50 is 6.42.
For the compound `NC(=O)c1ccc(N2CCC(NC(=O)Cc3ccc(F)cc3)C2)c2cncnc12` (racemic) [Example 51, 5-(3-(2-(4-fluorophenyl)acetamido)pyrrolidin-1-yl)quinazoline-8-carboxamide], the negative logarithm of the IC50 (pIC50) is 5.27.
Consider `NC(=O)c1ccc(N2CCC(CNC(=O)c3ccc(F)c(F)c3)C2)c2cncnc12` (racemic) [Example 54, 5-(3-((3,4-difluorobenzamido)methyl)pyrrolidin-1-yl)quinazoline-8-carboxamide], for which the pIC50 is 6.63.
With `NC(=O)c1ccc(N2CCC(CNC(=O)c3ccc(C(F)(F)F)cc3F)C2)c2cncnc12` (racemic) [Example 55, 5-(3-((2-fluoro-4-(trifluoromethyl)benzamido)methyl)pyrrolidin-1-yl)quinazoline-8-carboxamide], the negative logarithm of the IC50 (pIC50) is 6.54.
For `NC(=O)c1ccc(N2CCC(c3ccccc3)C(N)C2)c2cncnc12` (racemic) [Example 82, 5-(3-amino-4-phenylpiperidin-1-yl)quinazoline-8-carboxamide], the negative logarithm of the IC50 (pIC50) was 6.92.
In the case of `NC(=O)c1ccc(N2CCC(c3ccc(C(F)(F)F)cc3)C(N)C2)c2cncnc12` (racemic) [Example 83, 5-(3-amino-4-(4-(trifluoromethyl)phenyl)piperidin-1-yl)quinazoline-8-carboxamide], the pIC50 was 6.46.
`NC(=O)c1ccc(N2CC[C@H](c3ccc(F)cc3)[C@H](N)C2)c2cncnc12` (racemic) [Example 86, 5-[(3S,4R)-3-Amino-4-(4-fluoro-phenyl)-piperidin-1-yl]-quinazoline-8-carboxylic acid amide]: the pIC50 was 6.60.
The value for `NC(=O)c1ccc(N2CC[C@H](c3ccc(F)cc3)[C@@H](N)C2)c2cncnc12` (racemic) [Example 87, 5-[(3R,4R)-3-Amino-4-(4-fluoro-phenyl)-piperidin-1-yl]-quinazoline-8-carboxylic acid amide] was 5.15.
Turning to `NC(=O)c1ccc(N2CC[C@H](c3cccc(F)c3)[C@H](N)C2)c2cncnc12` (racemic) [Example 88, 5-[(3S,4R)-3-Amino-4-(3-fluoro-phenyl)-piperidin-1-yl]-quinazoline-8-carboxylic acid amide], the negative logarithm of the IC50 (pIC50) is 4.77.
In the case of `NC(=O)c1ccc(N2CC[C@H](c3cccc(F)c3)[C@@H](N)C2)c2cncnc12` (racemic) [Example 89, 5-[(3R,4R)-3-Amino-4-(3-fluoro-phenyl)-piperidin-1-yl]-quinazoline-8-carboxylic acid amide], the pIC50 is 5.62.
For the compound `NC(=O)c1ccc(N2CCC(CNC(=O)c3cc(F)ccc3F)C2)c2cncnc12` (racemic) [Example 106, 5-(3-((2,5-difluorobenzamido)methyl)pyrrolidin-1-yl)quinazoline-8-carboxamide], the pIC50 was 6.29.
Under `NC(=O)c1ccc(N2CCC(CNC(=O)c3ccc(F)cc3F)C2)c2cncnc12` (racemic) [Example 112, 5-{3-[(2,4-Difluoro-benzoylamino)-methyl]-pyrrolidin-1-yl}-quinazoline-8-carboxylic acid amide] stands 6.59.
With `NC(=O)c1ccc(NC2CNCCC2c2ccc(C(F)(F)F)c(F)c2)c2cncnc12` (single isomer, unassigned) [Example 5], the pIC50 was 8.00.

(Values after patent publication US9139568B2 (Merck Patent GmbH, priority 2011, dated 2015).)
